# In patent US4518602A, “Vinyl carboxylic acid derivatives, their production and use as inhibitors of thromboxane synthetase” (priority 1982, dated 1985):
# Biological target: T1, Thromboxane A2 (TXA2) synthetase (Equus caballus, UniProt A0A9L0T8T9)
# T1 sequence (A0A9L0T8T9 2-534): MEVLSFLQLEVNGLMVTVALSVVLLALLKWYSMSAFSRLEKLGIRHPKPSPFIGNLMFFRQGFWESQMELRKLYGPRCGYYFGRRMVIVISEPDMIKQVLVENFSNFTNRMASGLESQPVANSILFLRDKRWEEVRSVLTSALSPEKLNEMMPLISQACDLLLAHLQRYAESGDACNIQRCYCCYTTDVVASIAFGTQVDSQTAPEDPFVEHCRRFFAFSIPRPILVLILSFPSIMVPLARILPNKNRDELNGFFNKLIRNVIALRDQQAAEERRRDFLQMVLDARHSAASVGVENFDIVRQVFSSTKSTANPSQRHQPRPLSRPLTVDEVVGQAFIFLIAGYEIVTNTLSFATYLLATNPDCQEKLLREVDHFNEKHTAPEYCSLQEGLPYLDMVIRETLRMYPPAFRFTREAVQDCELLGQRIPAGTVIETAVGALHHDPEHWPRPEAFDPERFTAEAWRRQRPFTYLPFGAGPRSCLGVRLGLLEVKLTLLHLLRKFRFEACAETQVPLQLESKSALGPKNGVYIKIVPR
# Assay: Inhibitory Action on Thromboxane A2 (TXA2) Synthetase (indomethacin-treated horse platelet microsomes, TXB2 radioimmunoassay)
# Assay type: biochemical
# Experimental: As a specimen of TXA2 synthetase was employed horse platelet microsomes treated with indomethacin (indomethacin-treated horse platelet microsomes: IPM), which were prepared according to the method described by Needleman et al. (Science 193 163, 1976).
# to 60 μl of 50 mM tris-buffer solution (pH 7.5) of IPM (containing 140 μg as protein) was added 60 μl of the buffer solution or the solution containing the test compounds at various concentrations. The mixtures were left standing for 5 minutes at room temperature. Then at 0° C. to 100 μl portion of the mixture was added 20 μl of the buffer solution containing 30 ng of prostaglandin H2 (PGH2). The mixtures were left standing for 5 minutes at 0° C. to cause formation of thromboxane A2 (TXA2). The reaction of thromboxane A2 production was stopped by the addition of 500 μl of the tris-buffer to the mixture. Using 50 μl of the mixtures, the quantitative determination of thromboxane B2 (TXB2), a stable metabolite of TXA2, was done by means of the radioimmunoassay (Shibouta et al., Biochem. Pharmacol. 28 3601, 1979).
# The inhibitory activity of the compounds on TXA2 -synthetase was determined from the difference in the production of TXB2 between the test group and the control group.
inhibition at 0.03 µM (3 × 10^-8 M) [%],inhibition at 0.1 µM (10^-7 M) [%],% Inhibition on thromboxane A2 synthetase (3 × 10^-8 M) [%],% Inhibition on thromboxane A2 synthetase (10^-7 M) [%],SMILES
33,90,–,–,O=C(O)C(CCC/C=C(/c1ccccc1)c1cccnc1)Cc1ccccc1 (stereo not drawn) [3'-e]
66,93,–,–,C#CCC(CCC/C=C(\c1ccccc1)c1cccnc1)C(=O)O (stereo not drawn) [3'-h]
42,88,–,–,COCC(CCC/C=C(\c1ccccc1)c1cccnc1)C(=O)O (stereo not drawn) [3'-i]
57,93,–,–,N#Cc1ccc(CC(CCC/C=C(\c2ccccc2)c2cccnc2)C(=O)O)cc1 (stereo not drawn) [3'-n]
–,–,60,92,CC(C)(CCC/C=C(\c1cccnc1)c1cccs1)C(=O)O [3'-o]
–,–,46,90,CC(C)(CCC/C=C(/c1cccnc1)c1cccs1)C(=O)O [3'-p]
45,80,–,–,Cc1ccc(S(=O)(=O)C(CCCC/C=C(/c2ccccc2)c2cccnc2)C(=O)O)cc1 (stereo not drawn) [Compound 1-b]
57,85,–,–,Cc1ccc(S(=O)(=O)C(CCCC/C=C(\c2ccccc2)c2cccnc2)C(=O)O)cc1 (stereo not drawn) [Compound 1-d]
45,80,–,–,O=C(O)C(CCCC=C(c1ccccc1)c1cccnc1)[S+]([O-])c1ccccc1 (stereo not drawn) [Compound 1-e]
48,90,–,–,CC(C)(CCCC/C=C(\c1ccccc1)c1cccnc1)C(=O)O [Compound 1-l]
44,92,–,–,CC(C)(CCCC/C=C(/c1ccccc1)c1cccnc1)C(=O)O [Compound 1-m]
83,92,–,–,"CC(C)(CCC/C=C(\c1ccccc1)c1cccnc1)C(=O)O [Compound 2-a, (E)-2,2-dimethyl-7-phenyl-7-(3-pyridyl)-6-heptenoic acid]"
49,90,–,–,"CC(C)(CCC/C=C(/c1ccccc1)c1cccnc1)C(=O)O [Compound 2-b, (Z)-2,2-dimethyl-7-phenyl-7-(3-pyridyl)-6-heptenoic acid]"
–,97,92,–,"CC(C)(CCC/C=C(\c1cccnc1)c1cccs1)C(=O)O [Compound 2-c, (E)-2,2-dimethyl-7-(3-pyridyl)-7-(2-thienyl)-6-heptenoic acid]"
62,92,–,–,"CC(C)(CCC/C=C(/c1cccnc1)c1cccs1)C(=O)O [Compound 2-d, (Z)-2,2-dimethyl-7-(3-pyridyl)-7-(2-thienyl)-6-heptenoic acid]"
65,90,–,–,CC(CCCC=C(c1cccnc1)c1ccsc1)C(=O)O (stereo not drawn) [Compound 2-e]
41,96,–,–,O=C(O)C(CCC/C=C(\c1cccnc1)c1cccs1)c1ccccc1 (stereo not drawn) [Compound 2-n]
52,84,–,–,CSC(CCC/C=C(\c1ccccc1)c1cccnc1)C(=O)O (stereo not drawn) [Compound 4-a]
60,93,–,–,O=C(O)C(CCC/C=C(\c1ccccc1)c1cccnc1)Sc1ccccc1 (stereo not drawn) [Compound 4-b]
50,88,–,–,O=C(O)C(CCC/C=C(/c1ccccc1)c1cccnc1)Sc1ccccc1 (stereo not drawn) [Compound 4-c]
30,87,–,–,COC(=O)C(C)(CCC/C=C(\c1ccccc1)c1cccnc1)Sc1ccccc1 (stereo not drawn) [Compound 4-h]
59,92,–,–,C=C(C)C(CCC/C=C(\c1ccccc1)c1cccnc1)C(=O)O (stereo not drawn) [Compound 5-g]
32,77,–,–,O=C(O)C(CCC/C=C(\c1ccccc1)c1cccnc1)C1=CCCC1 (stereo not drawn) [Compound 5-i]
41,81,–,–,CC(C)(O)C(CCC/C=C(\c1ccccc1)c1cccnc1)C(=O)O (stereo not drawn) [Compound 5-j]
